{"source": "paper PMC5929447", "about": "(Oncotarget, 2018)", "key": {"BCL-XL [1]": {"target": "T1, BCL-XL (Homo sapiens, UniProt Q07817)", "T1 sequence (Q07817 whole entry)": "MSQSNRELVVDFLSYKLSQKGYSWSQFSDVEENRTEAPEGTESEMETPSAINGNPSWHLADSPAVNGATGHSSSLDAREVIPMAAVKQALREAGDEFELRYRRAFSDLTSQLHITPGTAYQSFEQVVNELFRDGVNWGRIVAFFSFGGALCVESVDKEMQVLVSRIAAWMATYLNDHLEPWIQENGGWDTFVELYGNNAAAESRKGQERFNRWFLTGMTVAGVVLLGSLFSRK", "experiment": "Fluorescence polarization (FP) with Fluorescein-PUMA, BCL-XL", "type": "binding", "settings": "Fluorescein-PUMA as binder; read-out: FP_BCL-XL_KI", "experimental": "Final concentrations of MCL-1, BFL-1, BCL-2 and BCL-XL proteins were 10, 10, 10 and 20 nM respectively. The assay plates were incubated for 2 hours at room temperature and the FP was measured on a Synergy 2 reader (Ex. 528 nm, Em. 640 nm, Cut-off 510 nm). The binding of increasing doses of compound was expressed as a percentage reduction in mP compared to the window established between ‘DMSO only’ and ‘total inhibition’ control (30 μM PUMA). […] The KI was subsequently calculated as previously described [42]."}, "MCL-1": {"target": "MCL-1 (Homo sapiens, UniProt Q07820)", "sequence (Q07820 whole entry)": "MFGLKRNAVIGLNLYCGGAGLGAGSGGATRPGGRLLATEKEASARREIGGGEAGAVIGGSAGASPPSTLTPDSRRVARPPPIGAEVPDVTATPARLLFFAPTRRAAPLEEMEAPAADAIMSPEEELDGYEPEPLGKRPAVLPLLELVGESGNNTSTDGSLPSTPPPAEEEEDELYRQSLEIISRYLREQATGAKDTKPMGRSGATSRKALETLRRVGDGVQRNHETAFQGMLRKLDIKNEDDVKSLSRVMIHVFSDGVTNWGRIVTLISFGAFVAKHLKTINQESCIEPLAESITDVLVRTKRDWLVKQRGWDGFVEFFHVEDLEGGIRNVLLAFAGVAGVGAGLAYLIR", "experiment": "Fluorescence polarization (FP) with Fluorescein-PUMA, MCL-1", "type": "binding"}, "BCL-2": {"target": "BCL-2 (Homo sapiens, UniProt P10415)", "sequence (P10415 whole entry)": "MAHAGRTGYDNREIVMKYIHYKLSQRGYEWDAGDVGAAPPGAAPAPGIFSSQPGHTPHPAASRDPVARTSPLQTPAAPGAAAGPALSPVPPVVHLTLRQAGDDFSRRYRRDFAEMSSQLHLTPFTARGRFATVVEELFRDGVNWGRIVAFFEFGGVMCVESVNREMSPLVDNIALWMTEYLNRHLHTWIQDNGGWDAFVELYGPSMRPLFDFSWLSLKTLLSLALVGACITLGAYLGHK", "experiment": "Isothermal titration calorimetry (ITC), BCL-2", "settings": "binding to BCL-2", "method": "(§1) The protein was dialyzed prior to use in 2 L of 25 mM HEPES, 150 mM NaCl, 5% glycerol (v/v), 0.5% MTG (v/v) at pH 7.4 for 3 hours at room temperature. The protein was dialyzed using a 3.5 K MWCO Slide-A-Lyzer™ cassette. The protein solution was recovered, spin-filtered through a […] frit. The filtered protein was quantified by UV absorbance at 280 nm using an extinction coefficient of 36440 M^-1cm^-1. 500 ml of dialysis buffer was retained (remainder used to rinse out SCHOT bottle) and degassed for a minimum of 30 mins under vacuum with constant stirring. […] The solutions were carefully matched to ensure same solvent and buffer conditions were present in both syringe and cell (this is to minimize heat of dilution effects). The final solution was the dialysis buffer plus 1% DMSO and 0.05% P20. The experiment was performed over 13 injections with stirring at 1000 rpm, gain setting low and at 25° C. Pure water was used in the reference cell. The first injection was 0.5 μl with a duration of 1 second with a gap of 150 seconds until the further 12 injections of 3.05 μl with a duration 6.1 seconds and a 240 second interval between injections. Data was analyzed using the vendor supplied software, PEAQ-ITC Analysis Software. The data model used was the single site model. The data shown is the average of 2 or 3 independent experiments."}, "BCL-XL [2]": {"target": "T1, BCL-XL", "experiment": "Isothermal titration calorimetry (ITC), BCL-XL", "type": "binding", "settings": "25 °C; read-out: ITC_BCL-XL_KD", "method": "as §1"}, "RS4;11 cell line": {"system": "RS4;11 cell line", "experiment": "CellTiter-Glo cell viability, RS4;11", "type": "cell-based", "settings": "Homo sapiens, 72 h of treatment", "method": "(§2) Cells were seeded into 96-well plates and treated at 8 points with 1:2 serial dilution of compounds. Cell viability was assessed and assayed for viability using CellTiter-Glo reagent (Promega) following the manufacturer's instructions. Plates were read using Tecan luminescence plate reader. Results were normalized to the viability of cells without compounds (control wells). The IC50 values were calculated using nonlinear regression algorithms in XCell software."}, "[3]": {"system": "BAX-deficient RS4;11 cells", "experiment": "Viability of RS4;11 cells transduced with shRNA BAX", "type": "cell-based", "settings": "72 h"}, "BCL-2/BAX complex [4]": {"target": "T2, BCL-2/BAX complex (Homo sapiens, UniProt P10415)", "T2 sequence (P10415 whole entry, one chain of several)": "as the sequence (P10415 whole entry) above", "experiment": "Co-immunoprecipitation in RS4;11 cells", "type": "cell-based", "settings": "2 h, increasing concentrations"}, "BCL-2/BAX complex [5]": {"target": "T2, BCL-2/BAX complex", "experiment": "Co-immunoprecipitation in BCL-2-overexpressing HeLa cells", "type": "cell-based", "settings": "2 h"}, "[6]": {"system": "isolated platelets from healthy volunteers", "experiment": "Apoptosis (annexin V) in isolated platelets", "type": "cell-based", "settings": "Homo sapiens, Platelet; 4 healthy donors, 3 h; read-out: EC50 apoptosis (PS+) in isolated platelets", "method": "Peripheral blood samples from CLL patients were obtained with informed patient consent and local ethical committee approval (UHL-09723). […] Interphase fluorescence in situ hybridization (FISH) was performed for detection of 17p13 deletion. Mantle cell lymphoma (MCL) primary cells were obtained after informed consent from MCL patients treated at the department of clinical hematology from the University Hospital of Nantes, France. Peripheral MCL cells from blood or pleural effusion, were purified after Ficoll-Hypaque separation with immuno-magnetic anti-CD19 beads (Miltenyi, Paris, France). Primary cells were cultured in RPMI-1640 supplemented with 10% FCS and 2 mM glutamine. Human platelets were isolated from citrate blood donated by healthy volunteers. Washed platelets were cultured in Hepes-buffered saline (HBS, 10 mM Hepes, 150 mM NaCl, 5 mM KCl, 1 mM MgSO4, pH 7.4).\nEC50 values were calculated using GraphPadPrism (non-linear fit, sigmoidal dose response, variable slope). […] Cell death was assessed in the CD19+ primary MCL cells by annexinV-FITC staining combined with an analysis of altered cellular morphology (lower FCS). Fluorescence was analyzed on FACSCalibur."}, "[7]": {"system": "Diffuse Large B-Cell Lymphoma cell lines", "experiment": "CellTiter-Glo viability, DLBCL cell line panel", "type": "cell-based", "settings": "72 h, six out of eleven DLBCL cell lines tested", "method": "as §2"}, "[8]": {"system": "Mantle Cell Lymphoma cell lines", "experiment": "CellTiter-Glo viability, MCL cell line panel", "type": "cell-based", "settings": "72 h; two MCL cell lines out of five tested", "method": "as §2"}, "[9]": {"system": "Burkitt lymphoma cell lines", "experiment": "CellTiter-Glo viability, Burkitt lymphoma cell line panel", "type": "cell-based", "settings": "72 h; all Burkitt lymphoma cell lines tested", "method": "as §2"}, "[10]": {"system": "caspase-3 activity in RS4;11 tumor xenografts", "experiment": "Caspase-3 activity in RS4;11 tumor xenografts", "type": "in vivo", "settings": "16 h post dosing, SCID mice", "method": "Body weights were recorded and tumors were measured with digital calipers twice to three times a week. Tumor volume was calculated using the formula: length × width^2/2. Percent changes in body weights was calculated as (BWcurrent - BWinitial)/(BWinitial) × 100. Data is presented as percent body weight change from the day of treatment initiation. When tumors reached approximately 200 mm^3 for efficacy studies or 300 mm^3 for pharmacodynamic studies, mice were randomized. […] Mice were treated via oral gavage at 10 ml/kg with the doses and schedules described in the figure. For pharmacodynamic studies, blood and tumors were removed 16 h post dosing and immediately snap-frozen. Total proteins were extracted from the tumors and caspase-3 activity was assessed in triplicate using CaspACE® Assay System (Promega). Platelet cell counts were determined 16 hours post dosing using Coulter AcT diff (Beckman)."}, "[11]": {"experiment": "Body weight in Toledo-bearing mice", "type": "in vivo", "settings": "doses up to 300 mg/kg, oral five times a week for 3 weeks", "method": "For each experiment, female SCID/beige mice were implanted subcutaneously (right axillary region) with 3 × 10^6 Toledo or RS4;11 (1 × 10^6 cells for efficacy studies and 1 × 10^7 cells for pharmacodynamics studies) suspended in 1:1 mixture of cold DPBS and Matrigel™ in a total volume of 100 μl. Body weights were recorded and tumors were measured with digital calipers twice to three times a week. Tumor volume was calculated using the formula: length × width^2/2. Percent changes in body weights was calculated as (BWcurrent - BWinitial)/(BWinitial) × 100. Data is presented as percent body weight change from the day of treatment initiation."}}, "note": "“And” between values parts separate entries of the source, which are not always exact repeats. Identical values can stand only once.", "data": [{"molecule": "O=C(c1cc(-c2cc3c(cc2C(=O)N2Cc4ccccc4C[C@H]2CN2CCOCC2)OCO3)n2c1CCCC2)N(c1ccccc1)c1ccc(O)cc1", "note": "[S55746]", "values": [{"measurement": "Ki", "setting": "BCL-XL [1]", "result": 520, "unit": "nM"}, {"measurement": "binding to MCL-1", "setting": "MCL-1; FP", "result": "No significant binding"}, {"measurement": "FP_MCL-1, % of inhibition at the maximal tested concentration", "setting": "MCL-1; at 30E-06 M", "result": "4.3% and 4.5%"}, {"measurement": "N (sites), stoichiometry", "setting": "BCL-2", "result": 1.1, "unit": "sites"}, {"measurement": "∆H (enthalpy delta)", "setting": "BCL-2", "result": "–13.5 kcal/mol"}, {"measurement": "Kd", "setting": "BCL-XL [2]", "result": 186, "unit": "nM"}, {"measurement": "IC50", "setting": "RS4;11 cell line", "result": 71.6, "unit": "nM"}, {"measurement": "reduction of sensitivity of BAX-deficient versus control RS4;11", "setting": "[3]", "result": "≈ 50 fold"}, {"measurement": "IC50", "setting": "[3]; Homo sapiens, RS4-11, shRNA BAX", "result": 2700, "unit": "nM"}, {"measurement": "disruption of the BCL-2/BAX complex in RS4;11 cells", "setting": "BCL-2/BAX complex [4]", "result": "concentration-dependent disruption of the BCL-2/BAX complex"}, {"measurement": "effect on BCL-2/BAX complex in BCL-2-overexpressing HeLa cells", "setting": "BCL-2/BAX complex [5]", "result": "affects BCL-2/BAX complex"}, {"measurement": "EC50", "setting": "[6]", "result": "> 3000", "unit": "nM"}, {"measurement": "IC50", "setting": "[7]", "result": "< 1000", "unit": "nM"}, {"measurement": "IC50", "setting": "[8]", "result": "< 1000", "unit": "nM"}, {"measurement": "IC50", "setting": "[9]", "result": "> 10000", "unit": "nM"}, {"measurement": "caspase-3 activity in tumor, times higher than in vehicle-treated animals", "setting": "[10]; 25 mg/kg single oral gavage", "result": "about 11 times"}, {"measurement": "caspase-3 activity in tumor, times higher than in vehicle-treated animals", "setting": "[10]; 100 mg/kg single oral gavage", "result": "~28", "unit": "times"}, {"measurement": "body weight compared to the vehicle control group", "setting": "[11]", "result": "did not significantly differ"}]}]}
